Where two headings read alike, the source gives them in different places.
Legend:
[1] = tested on: ischemic tissue gene expression
Description: (§1) Hind limb ischemia was induced by ligating the left common femoral artery proximal to origin of profunda femoris artery according to Senthilkumar, A., Smith, R. D., Khitha, J., Arora, N., Veerareddy, S., Langston, W., Chidlow, 1H., Jr., Barlow, S. c., Teng, x., Patel, R. P., et al. 2007. Arterioscler Thromb Vasc Biol 27: 1947-1954. Mice were anesthetized with intraperitoneal injection of ketamine (100 mglkg) and xylazine (8 mglkg); surgery was performed under aseptic conditions. The common femoral vein and femoral nerve were dissected away from the artery. Two ligatures were placed in the common femoral artery proximal to the profunda femoris artery and then transected between the two ligations. The incision was then closed and the ligation was immediately verified by laser Doppler measurement of tissue blood flow.
RNA integrity was checked using the Agilent 2100 Bioanalyzer (Agilent Technologies, Palo Alto, Calif.). […] Double stranded cDNA was synthesized from 5 ug total RNA using a Superscript cDNA synthesis Kit (Invitrogen, Carlsbad, Calif.) and purified using the Gene Chip Sample Cleanup Module (Affymetrix, Santa Vlara, Calif.). After biotin-labeling, the cDNA were fragmented at 94° C. and hybridized to the GeneChip® Mouse Genome 430 2.0 Array (Affymetrix), which contains 39,000 fully annotated transcripts of the mouse genome. After washing and staining, the arrays were scanned using GeneChip Scanner 3000 (Affymetrix) and hybridization efficiency determined by housekeeping control and spike control probe sets.
Array data were globally scaled to a target intensity value of 500 to compare individual array experiments. To determine differentially expressed genes between PBS and nitrite treatment, data were log transformed and uploaded into Genesifter program (www.genesifter.net). Identification of significant changes in gene expression were determined using a pair-wise comparison of PBS versus nitrite therapy gene array data at each individual time point with the following criteria: a minimal 2-fold difference in expression with no maximal threshold limit, a hybridization quality cutoff of 1, and an unpaired student t-test between treatment groups followed by Benjamini and Hochberg post test to limit false discovery rates.
The resulting output of network analysis was broken down according to the genetic composition of networks, the biological function of the networks, the number of interrelated network relationships, as well as statistical analysis of individual networks.
Induction of chronic hind limb ischemia was performed according to the method in Example 1. […] Nitrite doses were given once in the morning (8 am) and a second in the afternoon (5 pm) with muscle tissue harvested on the morning of the 4th and 8th days (to give an entire 3 and 7 day period for study). Four muscle specimens from individual mice were harvested per treatment cohort per time point for a total of 16 individual specimens for gene array analysis. Harvested tissue was immediately frozen in liquid nitrogen for subsequent total RNA isolation. Laser doppler blood flow measurements were taken from non-ischemic and ischemic hind limbs prior to tissue collection to determine the amount of ischemic tissue perfusion using a Vasamedics Laserflo BPM2 deep tissue penetrating doppler device. Percent restoration of blood flow was determined by dividing the ischemic hind limb blood flow by the non-ischemic hind limb blood flow and multiplying by 100. Statistical analysis of changes in tissue blood flow between treatment groups at specific time points were performed with an unpaired students t-test using Prism software (Graphpad).

[2] = tested on: coronary artery endothelial cells, umbilical vein endothelial cells
Description: (§2) A contained hypoxia tissue culture system was used allowing the long term culturing of cells in hypoxia (24 hrs). A fluorescent plate reader in hypoxic chamber measured NO formation using the fluorescent dye DAF-FM.
(§3) The effect of specific inhibitors of NO production, carboxy PTIO (2-(4-Carboxyphenyl)-4,4,5,5-tetramethylimidazoline-1-oxyl-3-oxide), allopurinol and L-NAME, was also analyzed. […] Results for iliac vein smooth muscle cells are shown in FIGS. 7A, 7B and 8; results for aortic smooth muscle cells are shown in FIGS. 9A, 9B and 10; results for coronary artery cells are shown in FIGS. 11A, 11B and 12, results for umbillical vein cells are shown in FIGS. 13A, 13B and 14.

[3] = tested on: iliac vein smooth muscle cells, aortic smooth muscle cells
Description: as §2, §3

[4] = tested on: cultured cells; settings: hypoxic and normoxic conditions, 100 nM or 1 uM sodium nitrite (FIG. 16)
Description: FIG. 16 depicts the chemiluminescent detection of nitrite/nitric oxide during hypoxia.
as §3

[5] = tested on: ischemic hind limb of B6.BKS-Lepr^db/db diabetic mice; settings: aged diabetic mice, 165 ug/kg
Source text: (§4) B6.BKS-Lepr^db/db diabetic mice were purchased from Jackson's laboratory and housed in the animal center of LSU Health Sciences Center for 6 months. Surgical hind limb ischemia was created in 9 month-old male (Db/Db) type-2 diabetic mice. The mice were anesthetized by isoflurane inhalation and the left groin area was shaved and naired. The left external iliac artery and vein, left femoral artery and vein, left saphenous artery and vein and deep femoral and circumflex arteries and veins were ligated, cut, and excised to obtain a mouse model of critical hind limb ischemia. […] All treatments were performed in a double-blinded manner.
Laser Doppler blood flows were measured using a Vasamedics Laserflo BPM2 device in the gastrocnemius pre-ligation, post-ligation and on days 1, 3, 5, 7, 9, 11, 13, 15, 17, 19 and 21 post-ligation. Blood vessels visible through the skin were avoided to ensure readings indicative of muscle blood flow. Measurements were recorded as milliliter of blood flow per 100 grams of tissue per minute. Percent blood flows were calculated as: a/b××100 where a=ischemic limb average flow and b=non-ischemic limb average flow.

[6] = aged diabetic mice
Source text: as §4
Blood glucose measurements were taken using Ascensia Elite blood glucose test strips and a Bayer Glucometer Elite.
Plasma total cholesterol and LDL levels were determined using a Siemens Vista Clinical Chemistry analyzer.

[7] = tested on: gastrocnemius muscles of aged diabetic mice; settings: non-ischemic tissues of aged diabetic mice (FIG. 21B)
Source text: as §4
The gastrocnemius muscles from ischemic and non-ischemic hind limbs were removed, dissected, and embedded in OCT freezing medium. Frozen tissue blocks were cut into 5 μm sections and slides prepared. A primary antibody against PECAM-1 was added at a 1:200 dilution along with anti-Ki67 (1:350 dilutions) and incubated at 37° C. for 1 hour. Slides were then washed and a Cy3 conjugated secondary antibody was added at a 1:250 dilution along with anti-rabbit Ig antibody at a 1:150 dilution and incubated at room temperature for 1 hour. Slides were once again washed and mounted with cover slips using Vectashield DAPI. […] Cellular proliferation was determined as the ratio between regions positive for Ki67 and DAPI positive area.

[8] = tested on: ischemic hindlimbs of aged diabetic mice; settings: PBS controls showed extensive necrosis and digit loss
Source text: as §4

[9] = tested on: ischemic hindlimbs of C57Bl/6J mice; settings: fluorescence angiograms, 4 seconds blush time, vs PBS
Description: as §1

[10] = tested on: C2C12 myoblasts
Source text: as §2

[11] = tested on: C2C12 myoblast cells; settings: hypoxic conditions
[12] = cardiovascular development and function, skeletal muscle development, tissue development
[13] = cellular assembly and organization, carbohydrate metabolism, molecular transport
[14] = day 3, 165 μg/kg twice daily i.p., vs PBS
[15] = day 3, Ingenuity network analysis
[16] = day 7, 165 μg/kg twice daily i.p., vs PBS
[17] = inflammatory response, neurological disease, cellular development

O=NO [sodium nitrite]
genes enhanced, FIG. 2 network ([1]; antigen presentation, cell mediated immunity, humoral mediated immunity): calsequestrin 2, GST alpha 5, and solute carrier family member 25 | genes inhibited, FIG. 6 network ([1]; cancer, nervous system development and function, tissue morphology): glycerol-3-phosphate dehydrogenase and protein phosphatase 2, reg subunit B | genes enhanced, FIG. 3 network [1, 12]: CXCR6, VE-cadherin, DIX domain containing 1, myosin, heavy chain 2, myosin, light chain 2, myosin, light chain 4, myosin, light chain 9, P2rY2, paired like homeodomain 2, troponin C, type 1, troponin T, type 2 and vitronectin | genes inhibited, FIG. 3 network [1, 12]: Rho Gtpase activating protein 17, CCR5, CXCL12, CXCL7, formin binding protein 1, G protein coupled receptor 65, 5-HT receptor 2B, serine/threonine kinase 17b and thrombospondin 2 | genes enhanced, FIG. 1 network ([1]; cardiovascular system development and function, tissue morphology, carbohydrate metabolism): flavin containing monoxygenase 5, smoothelin like 1, mysoin heavy chain 7, CUB zona pellucida like domains 1 and small proline rich protein 1A | genes enhanced, FIG. 4 network [1, 13]: cyclin M4, EH domain containing 2, myosin heavy chain 7, myosin light chain 9 regulatory, popeye domain containing 2 and TEA domain family member 4 | genes inhibited, FIG. 4 network [1, 13]: adipose differentiated-related protein, chitinase 3-like 3, kinesin family member 20B, leukocyte specific transcript 1, RNA binding motif protein 47 and sorting nexin 6 | genes down-regulated [1, 14]: 346 genes | genes up-regulated [1, 14]: 111 genes | expression of genes associated with innate and acquired immune responses (FIG. 1) [1, 15]: inhibited | expression of genes involved in antigen presentation, cell mediated immunity, and humoral mediated immunity (FIG. 2) [1, 15]: altered | expression of genes involved in cardiovascular development and function, skeletal muscle development, and tissue development (FIG. 3) [1, 15]: altered | expression of genes involved in cardiovascular system development and function, tissue morphology, and carbohydrate metabolism (FIG. 1) [1, 15]: enhanced | expression of genes involved in cellular assembly and organization, carbohydrate metabolism and molecular transport (FIG. 4) [1, 15]: altered | expression of genes involved in inflammatory response, neurological disease and cellular development (FIG. 5) [1, 15]: altered | distinct gene expression profiles significantly altered ([1]; day 3 of ischemia, 165 μg/kg twice daily i.p., vs PBS, minimal 2-fold difference): 457 | expression of genes associated with tissue remodeling ([1]; day 7): enhanced | genes down-regulated [1, 16]: 55 genes | genes up-regulated [1, 16]: 219 genes | expression of genes involved in cancer, nervous system development and function and tissue morphology (FIG. 6) ([1]; day 7, Ingenuity network analysis): altered | genes with differentially impacted expression profile ([1]; day 7 of ischemia, 165 μg/kg twice daily i.p., vs PBS): 274 genes | genes enhanced, FIG. 5 network [1, 17]: glycogen syntase 1 (muscle), kin of IRRE like 3, solute carrier family 16, member 3, solute carrier family 8, member 3 and uridine-cytidine kinase 2 | genes inhibited, FIG. 5 network [1, 17]: C-type lectin domain family 5, A, FERM domain containing 4B, receptor (G protein coupled) activity modifying protein 2, signal-regulatory protein beta 1, solute carrier family 15, member 3 and zinc finger E-box binding homeobox 2 | myogenin mRNA levels ([1]; ischemic mouse hindlimb gastrocnemius muscle, nitrite-treated animals (FIG. 25A)): significantly increased | nitrite reduction to NO, concentration dependence [2]: reduced nitrite to NO at lower concentrations of exogenous nitrite | nitrite reduction to NO ([2]; hypoxic conditions (1% oxygen)): reduced nitrite to NO | DAF fluorescence (NO formation) ([3]; higher concentrations of exogenous nitrite required): large increases in DAF fluorescence | nitrite reduction to NO ([3]; hypoxic conditions (1% oxygen)): reduced nitrite to NO | intracellular NO levels [4]: lower concentrations, but not higher concentrations, of sodium nitrite resulted in a significant increase | blood flow in ischemic hind limbs compared with PBS-treated control animals ([5]; all time points analyzed): significantly greater | blood flow in ischemic hind limbs relative to preligation ([5]; by the end of the study): approached preligation levels | ischemic hind-limb blood flow ([5]; treatment delayed to five days after surgery): restored | body weight ([6]; delayed chronic treatment (FIG. 18A)): did not alter | blood glucose levels ([6]; delayed chronic treatment (FIG. 18B)): did not alter | serum cholesterol ([6]; delayed chronic treatment (FIG. 19A)): significantly decreased | serum LDL ([6]; delayed chronic treatment (FIG. 19B)): significantly decreased | epithelial cell proliferation [7]: but not non-ischemic tissues | digit loss [8]: no digit loss | necrosis [8]: minimal necrosis | arteriogenesis [9]: significantly increased | levels of NO ([10]; 0.01 uM sodium nitrite, only in hypoxic conditions (FIG. 24B)): significantly increased | NO levels ([10]; 100 uM sodium nitrite (FIG. 24A)): did not alter | myogenin mRNA ([11]; decreasing levels of sodium nitrite, inversely correlated with nitrite concentration): dose-dependent increase | levels of myogenin mRNA ([11]; lowest dose 0.01 uM sodium nitrite): highest

Reference: US9579344B2, “Use of nitrite salts in treating tissue damage” (Board of Supervisors of Louisiana State University and …, priority 2009, dated 2017)
